Test results taken from PMC8137473, “Preclinical trial of a MAP4K4 inhibitor to reduce infarct size in the pig: does cardioprotection in human stem cell-derived myocytes predict success in large mammals?” (Basic Research in Cardiology, 2021).
Values joined by “and” are separate entries in the source; they are usually repeats but may differ in a detail not shown here. Identical values can stand only once.

Legend:
[1] = plasma levels of DMX-5804 in swine during DMX-10001 infusion (efficacy study); format: in vivo, pig
Procedure: Compound concentrations after dosing were measured as follows by liquid chromatography–mass spectrometry (Pharmidex, London, UK). To 50 µL aliquots of plasma was added 200 µL of internal standard solution (methanol containing 500 ng/mL tolbutamide). Samples were then mixed (150 rpm, 20 min) and centrifuged (3000 rpm, 15 min). 75 µL of the resulting supernatant was added to 75 µL 10 mM ammonium acetate + 0.5% ammonia) and mixed (450 rpm, 15 min). Calibration standards covering the expected concentration range were prepared by spiking analyte into control matrix, with extraction and analysis in the same way as the plasma samples.
Analysis was done by liquid chromatography–mass spectrometry using a Shimadzu Nexera X2 ultra-high-pressure liquid chromatography system coupled to a Shimadzu LCMS 8060 triple quadruple mass spectrometer (Shimadzu, Milton Keynes, UK) with Waters Acquity BEH C18 (50 × 2.1)mm, 1.7 µm column (Waters, Elstree, UK) and mobile phase components 10 mM ammonium acetate + 0.5% ammonia (A) and methanol + 0.5% ammmonia (B). Gradient was 0–0.5 min 30% B; 0.5 to 2.5 min increase to 80% B; 2.5–2.6 min increase to 98% B; 2.6–3 min 98% B; 3–3.1 min decrease to 30% B; 3.1–3.5 min 30% B. Flow rate was 0.4 mL/min. Injection volume was typically 5 µL. Detection was by multiple reaction monitoring, DMX-5804 361.9 > 304.1 (positive ion), DMX-10001 470.1 > 258.0 (negative ion), and tolbutamide 271.0 > 91.0 (positive ion). Retention times were DMX-5804 2.9 min, DMX-10001 2.1 min, and tolbutamide 1.8 min. Data processing was done by Shimadzu LabSolutions Software (Shimadzu, Milton Keynes, UK).
Results were corrected for plasma protein binding by rapid equilibrium dialysis to calculate free drug levels, and were subjected to iterative computer modeling (XenoGesis, Alderley Park, UK) using Phoenix64 WinNonlin (Certara, Princeton, NJ), to devise the infusion protocol.
At several time-points (see Fig. 2), blood samples were taken in lithium-heparin-coated tubes (BD, Plymouth, UK) to analyze plasma levels of DMX-10001 (pro-drug) and DMX-5804 (active compound) and in EDTA-coated tubes (BD, Plymouth, UK) to measure heart-type fatty acid binding protein (hFABP). All blood samples were kept on ice immediately after withdrawal and were centrifuged for 10 min at 3000 rpm and 4 °C within 6 h. Plasma was aliquoted and cryopreserved at − 80 °C until analysis. Levels of DMX-10001 and DMX-5804 were determined by liquid chromatography–mass spectrometry (Pharmidex, London, UK). Porcine hFABP was analyzed as described: plasma samples were thawed on ice, diluted 10 × using the standard diluent provided with the kit, and analyzed by enzyme-linked immunosorbent assays according to the manufacturer’s instructions (Life Diagnostics, West Chester, PA). Absorbance was measured at 450 nm with a microplate photometer (Multiskan EX, Thermo Scientific, Etten-Leur, The Netherlands).

[2] = system: engineered human heart tissue; parameters: method as in PMID 30853557; conditions: cited from earlier work
376 kinases = system: 376 kinases; parameters: method as in PMID 30853557; conditions: cited from earlier work
hPSC-CMs = system: hPSC-CMs; parameters: method as in PMID 30853557; conditions: cited from earlier work
MAP4K4 = MAP4K4 (Homo sapiens, UniProt O95819); assay: cell-free biochemical assay, MAP4K4 inhibition; conditions: cell-free biochemical assays; read-out: IC50 against MAP4K4
Excerpt: DMX-10001, a rapidly hydrolyzed phosphate pro-drug of DMX-5804, was produced by Domainex Ltd, by a modification of the latter’s synthetic route, attaching a hydrolysable phosphate group via a linker to the core of DMX-5804 (Fig. 1a). This removes a key hydrogen bonding group and prevents DMX-10001 from binding to the hinge region of the MAP4K4 kinase domain. […] Furthermore, this modest value is likely driven by minute levels of DMX-5804 either present in the sample or generated during by hydrolysis during the assay.

aqueous solubility = format: physicochemical
Procedure: The chemical structures of DMX-5804 and DMX-10001 are compared in Fig. 1a, highlighting the phosphate moiety of the pro-drug. The aqueous solubility of DMX-10001 was > 400-fold greater than that of DMX-5804, allowing it to be infused i.v. without prohibitive fluid volumes. Cleavage to DMX-5804 was detectable in rats within 5 min and largely complete within 60 min (Fig. 1b). Data from i.v. infusion at a range of dose levels in the pig were simultaneously fit to a three-compartment pharmacokinetic model. Plasma protein binding in pig was used to determine free drug levels (not shown). Various dosing regimens were simulated to avoid an initial spike in DMX-5804 whilst rapidly achieving the efficacious drug levels seen in mice after oral gavage (Fig. 1c).

[3] = system: mouse myocardial infarction; parameters: method as in PMID 30853557; conditions: mice, even given an hour after reperfusion; cited from earlier work
[4] = parameters: method as in PMID 30853557; conditions: mice, twice daily oral dosing of DMX-5804; cited from earlier work
pigs = conditions: cited from earlier work; for cardioprotection findings in pigs: 16 (TRO40303), 5, 20 (cyclosporine), 21, 29 (cariporide)
humans = conditions: cited from earlier work; for cardioprotection in human trials: 16 (TRO40303), 5, 20 (cyclosporine), 21, 29 (cariporide)
[5] = pigs, pro-drug DMX-10001 infusion (60 mg/kg/h 0.5 h + 17 mg/kg/h 23.5 h)

MAP4K4, sequence (O95819 whole entry, species assumed, the tested form may be a part): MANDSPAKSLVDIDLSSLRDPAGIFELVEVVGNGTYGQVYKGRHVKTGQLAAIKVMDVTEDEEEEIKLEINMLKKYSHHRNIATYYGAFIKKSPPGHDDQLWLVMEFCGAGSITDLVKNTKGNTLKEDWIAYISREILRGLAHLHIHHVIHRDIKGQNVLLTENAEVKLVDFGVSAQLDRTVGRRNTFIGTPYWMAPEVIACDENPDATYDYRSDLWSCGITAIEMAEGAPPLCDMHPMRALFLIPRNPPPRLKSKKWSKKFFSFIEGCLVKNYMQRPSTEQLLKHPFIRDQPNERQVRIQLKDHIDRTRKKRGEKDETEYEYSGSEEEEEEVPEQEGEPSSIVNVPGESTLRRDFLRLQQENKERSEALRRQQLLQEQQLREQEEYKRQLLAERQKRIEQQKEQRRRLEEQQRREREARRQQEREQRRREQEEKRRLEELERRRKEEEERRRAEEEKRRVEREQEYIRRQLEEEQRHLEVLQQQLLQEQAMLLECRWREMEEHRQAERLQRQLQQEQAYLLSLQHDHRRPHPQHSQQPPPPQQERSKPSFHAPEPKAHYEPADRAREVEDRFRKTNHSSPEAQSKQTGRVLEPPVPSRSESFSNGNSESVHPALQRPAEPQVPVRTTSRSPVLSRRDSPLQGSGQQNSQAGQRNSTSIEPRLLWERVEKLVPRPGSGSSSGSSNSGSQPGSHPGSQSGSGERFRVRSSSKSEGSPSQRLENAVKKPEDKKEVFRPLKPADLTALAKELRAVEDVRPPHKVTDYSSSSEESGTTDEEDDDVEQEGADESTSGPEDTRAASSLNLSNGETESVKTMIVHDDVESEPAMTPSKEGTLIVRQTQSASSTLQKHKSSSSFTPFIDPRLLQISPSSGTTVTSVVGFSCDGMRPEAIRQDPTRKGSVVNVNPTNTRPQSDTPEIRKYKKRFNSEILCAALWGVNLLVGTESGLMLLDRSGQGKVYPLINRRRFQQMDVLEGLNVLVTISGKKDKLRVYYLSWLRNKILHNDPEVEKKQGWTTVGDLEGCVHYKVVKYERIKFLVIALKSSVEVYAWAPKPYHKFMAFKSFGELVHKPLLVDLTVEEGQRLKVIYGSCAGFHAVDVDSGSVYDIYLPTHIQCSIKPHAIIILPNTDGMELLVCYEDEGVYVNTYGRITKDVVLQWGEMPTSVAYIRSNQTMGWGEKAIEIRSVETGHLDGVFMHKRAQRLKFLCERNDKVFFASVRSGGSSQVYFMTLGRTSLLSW

In the case of `COCCOc1ccc(-c2cn(-c3ccccc3)c3nc[nH]c(=O)c23)cc1` [DMX-5804], the “target level of DMX-5804, based on successful reduction of IS in mice” value ([1]; after infusion with DMX-10001) is reported as “achieved in all animals”, the “levels of DMX-5804 generated in pigs relative to those in mice” value ([1]; at the corresponding times after injury) is reported as “at least tenfold” and the “free AUC0-24 of DMX-5804” value [1, 5] is reported as 27,900 h.nM. The “free Cav of DMX-5804” value [1, 5] was 1,160 nM, the “DMX-5804 concentrations relative to the levels that rescued hPSC-CMs and reduced IS in mice” value ([1]; swine, all times tested beginning 30 min after the start of DMX-10001 infusion) was “> fivefold” and the “cell death in engineered human heart tissue” value [2] was “blocked cell death”. The “selectivity among 376 kinases” value (376 kinases) was “interfering potently just with MINK1/MAP4K6 and TNIK/MAP4K7”, the “death from oxidative stress in hPSC-CMs” value (hPSC-CMs) was “suppressed death from oxidative stress” and the EC50 (hPSC-CMs; vCor.4U cells treated with 400 μM H2O2, read-out: EC50 for reducing cell death) was 500 nM. For the same compound, the IC50 (MAP4K4) was 3 nM, the aqueous solubility (aqueous solubility) was “inadequate for i.v. delivery” and the “reduction of infarct size (IS)” value [3] was 50% and > 50%. For the same compound, the “free AUC0–22 of DMX-5804” value [4] was 2,200 h.nM.

In the case of `CC(C)CCC[C@@H](C)[C@H]1CC[C@H]2[C@@H]3CC/C(=N\O)[C@](C)(CCCO)[C@H]3CC[C@]12C` [TRO40303], the “cardioprotection findings in pigs” value (pigs) is listed as “weak or negative findings” and the “cardioprotection in human trials” value (humans) is listed as “failures of cardioprotection”.

For `Nc1ncnc2c1ncn2[C@@H]1O[C@H](CO)[C@@H](O)[C@H]1O` [adenosine], the protection in swine (pigs; bolus) is given as “gave no protection”.

For `CC(C)c1ccc(C(=O)NC(=N)N)cc1S(C)(=O)=O` [cariporide], the “cardioprotection findings in pigs” value (pigs) is listed as “weak or negative findings” and the “cardioprotection in human trials” value (humans) is listed as “failures of cardioprotection”.

For liraglutide, the results in pigs (pigs) is listed as “negative results” and the “myocardial salvage in humans” value (humans) is listed as “improved myocardial salvage”.
